Three compounds from patent US20250099406A1, “TREATING CANCERS WITH COMBINATIONS OF ACYLFULVENES WITH IBRUTINIB AND/OR BORTEZOMIB” (LANTERN PHARMA INC., priority 2022, published 2025) can be followed below.

In this assay the test system is JeKo-1 MCL xenograft tumors. Kind of assay: JeKo-1 MCL cell line-derived xenograft mouse study. Particulars: for tumor response to single-agent treatment: n=8/arm, low dose LP-284 (2 mg/kg i.v.), bortezomib 1 mg/kg i.p. or ibrutinib 50 mg/kg p.o.; for tumor volume: at day 17, on bortezomib (1 mg/kg i.p.) or ibrutinib (50 mg/kg p.o.), tumors refractory; for tumor size: day 16, treated by bortezomib (1 mg/kg, i.p.) or ibrutinib (50 mg/kg, p.o.). The format is in vivo, NOD.Scid mice. On the procedure:
The JeKo-1 MCL cell line-derived xenograft mice (n=8/arm) were treated with vehicle, LP-284 (2 mg/kg or 4 mg/kg, i.v.), bortezomib (1 mg/kg, i.p.), or ibrutinib (50 mg/kg, p.o.) at days indicated by arrows in the graph. Tumor volumes were measured every 2 to 4 days after treatment initiation.
The two drugs were replaced with one cycle of 4 mg/kg LP-284 or the vehicle (saline).
Each treatment arm was then further split into two sub-arms (n=4/sub-arm), one of which was treated by vehicle whereas the other was treated by 4 mg/kg LP-284 (i.v.), as indicated by arrows in the graph.
Five-week old NOD.Scid mice were procured through Envigo (Item 17003F). Mice were fed Teklad irradiated (sterilized) mouse diet and bedded with Teklad irradiated (sterilized) corncob bedding from Envigo (Indianapolis, IN). Mice were housed in Optimice carousel sterile quarters with filtered air supply in disposable cages from Animal Care Systems, Inc. (Centennial, CO). A total of 1×10^7 cells JeKo-1 cells were injected subcutaneously into the right hind flank of each animal using a […] needle. Vehicle (saline), 4 mg/kg or 2 mg/kg LP-284 was administered as an intravenous injection on day 1, 3, 5, 7, 9, 17, 19, 21, 23, 25. 50 mg/kg ibrutinib was administered orally daily on day 1-16. 1 mg/kg bortezomib administered as an intraperitoneal injection on day 1, 4, 7, 10. The ibrutinib and bortezomib arms were further treated with vehicle or 4 mg/kg LP-284 intravenously on day 17, 19, 21, 23, 25. Tumors were measured in two dimensions using calipers, and volume was calculated using the formula:
TumorVolume (mm^3)=w2×l/2
where w=width and l=length, in mm, of the tumor. For this study the calipers were aligned to the tumor edges (the tumors were not squeezed with the caliper).

Entries after “also recorded” stand apart in the source; their conditions may differ.

With `CC1=C(CN(O)C(N)=O)C2=C(C)C3(CC3)[C@](C)(O)C(=O)C2=C1` [LP-284, (+)-hydroxyureamethyl acylfulvene], the “tumor response to single-agent treatment” value is reported as “resulted in refractory cancer after initially controlling cell growth in tumors”. Moreover, the “survival versus vehicle (Kaplan-Meier)” value (bortezomib or ibrutinib pre-treated and refractory xenograft mice switched to 4 mg/kg LP-284 i.v., p<0.001) is reported as “approximately two times longer; also recorded: prolonged survival”. Also, for the setting “one cycle of 4 mg/kg LP-284 i.v. on day 17, 19, 21, 23, 25, tumors ~2000 mm3, n=4/sub-arm, 4 mg/kg”, the “tumor response after switching bortezomib- or ibrutinib-refractory mice to LP-284” value is given as “almost completely eliminating; also recorded: near complete tumor regression; also recorded: diminished rapidly”.
Consider `CC(C)C[C@H](NC(=O)[C@H](Cc1ccccc1)NC(=O)c1cnccn1)B(O)O` [bortezomib, [(1R)-3-methyl-1-({(2S)-3-phenyl-2-[(pyrazin-2-ylcarbonyl)amino]propanoyl}amino)butyl]boronic acid], for which the tumor volume is reported as roughly 2000 mm3, the tumor size is roughly 2000 mm3 and the “tumor response to single-agent treatment” value is given as “refractory”. In addition, the “tumor response to single-agent treatment” value (listed as Bortezomib) is “resulted in refractory cancer after initially controlling cell growth in tumors; also recorded: become refractory and relapse”.
Consider `C=CC(=O)N1CCC[C@@H](n2nc(-c3ccc(Oc4ccccc4)cc3)c3c(N)ncnc32)C1` [ibrutinib, (R)-1-(3-(4-amino-3-(4-phenoxyphenyl)-1H-pyrazolo[3,4-d]pyrimidin-1-yl)piperidin-1-yl) prop-2-en-1-one], for which the tumor volume is roughly 2000 mm3, the tumor size is reported as roughly 2000 mm3 and the “tumor response to single-agent treatment” value is listed as “refractory”. For the same compound, for the setting “listed as Ibrutinib”, the “tumor response to single-agent treatment” value was “resulted in refractory cancer after initially controlling cell growth in tumors; also recorded: become refractory and relapse”.
